Test results from patent US20070066638A1, “RYANODINE RECEPTOR BLOCKERS FOR TREATING PAIN” (priority 2005, published 2007).
Marks after values point to notes of the source that are not given here.

Tests used:
[1] = system: ryanodine receptor-channel complex; conditions: See Biochemistry 2001, 40, 531-542; cited from earlier work
[2] = system: sulprostone-induced allodynia in mice; experiment: Sulprostone model of transient allodynia; format: in vivo
Protocol: (§1) In mice, it is possible to induce transient allodynia by treating mice with chemical sensitizers. An interperitoneal injection (of a 1 ml/kg volume) of phenylephrine (an alphal receptor agonist) or sulprostone (a EP1 and EP3 prostaglandin receptor agonist) will induce transient allodynia. Alternatively, an intrathecal injection of NMDA (in a 5 ul volume) will also induce transient allodynia. The injected mice are assessed for allodynia once every 5 minutes over a 15-50 min period post injection by light stroking of the flank with a paintbrush. The allodynia response was ranked as follows: 0. No response; 1, mild squeaking with attempts to move away from the paintbrush; 2, vigorous squeaking, biting at the paintbrush and strong efforts to escape. Data is expressed as the average total score for each group. (Each animal can have a maximum score of 16 over the 50-min period.) * indicates significant difference (P<0.05) relative to sulprostone, NMDA or phenylephrine-treated rats.

[3] = system: phenylephrine-induced allodynia in mice; experiment: Phenylephrine model of transient allodynia; format: in vivo; conditions: maximum score 16
Protocol: as §1

[4] = system: capsaicin-induced allodynia in Sprague-Dawley rats; experiment: Capsaicin model, tactile allodynia (von Frey filament); format: in vivo, rat
Protocol: Intraplantar injection of capsaicin, the active ingredient in red hot chili peppers, will induce neurogenic inflammation and transient allodynia.
Methods/subjects: Eight to ten male Sprague-Dawley rats (Charle Rivers, Sprague-Dawley, 200-300 grams) were used in these experiments. Rats received a unitlateral intradermal injection (10 ul) of capsaicin (0.1%) superficially in the mid-plantar surface of the hind paw. A successful injection was confirmed by the apperance of a bleb after intraplantar capsaicin administartion. Capsaicin, the pungent ingredient in hot peppers, has been used to produce hyperalgesia (mildly painful sensory stimuli are perceived as highly painful) in humans. When applied topically or injected into the skin, capsaicin produces burning pain, hyperalgesia to heat within the immediate vicinity of capsaicin application, and mechanical hyperalgesia within a large sorrounding (Hohmann AG, et al.). On the rat hind paw, there are no major subjective behaviour or clinical observations such as marked redness, limping, chronic licking and swelling associated with this model except for the immediate bleb formation of the given agent on the plantar surface right after the injection and as reported in the literature, short term tactile allodynia, extreme thermal […] which persist for one week.
Allodynia Assessment: Rats were placed in Plexiglas cages positioned over an elevated wire mesh platform and habituated to the testing environment for 15 to 25 min before testing. Tactile allodynia was assessed using a single von frey filament (5.18) with a bending force of 10 grams (Dixon). Tactile allodynia refers to a nocifensive behavior elicited by a light touch or innocuous (here, mechanical) stimulus and was operationally defined as a lowering of the threshold for paw withdrawal from punctate mechanical stimulation (Hohmann AG, et al.). The filaments were positioned in contact with the hind paw for a duration of 5 s or until a withdrawal response occurred and repeated 10 consecutive times. This procedure was repeated three times to obtain a total of thirty responses and then averaged. Contralateral testing was also done; no capsaicin was given. Data are presented as paw withdrawl frequency (%). * indicates significant difference (P<0.05) relative to vehicle-treated rats.

[5] = system: rats with ligated L5 and L6 spinal nerves; experiment: Spinal nerve (L5/L6) ligation model of chronic pain, tactile allodynia by von Frey hairs; format: in vivo, rat; conditions: compared to a saline solution, 30 minutes after drug administration
[6] = system: NMDA-induced allodynia in mice; experiment: NMDA model of transient allodynia; format: in vivo; conditions: maximum score 16
Protocol: as §1

rats = experiment: Rotarod motor performance; format: in vivo, rat; conditions: fifteen minutes post-dosing, acceleration mode 5-15 RPM, in s (unit assumed)
From the text: The Rotamex® 4/8 Rota-rod is a device to test the motor performance decrement, performance time, partial or complete ataxia, and the motor coordination in laboratory animals. The principle of this system is to measure the time each animal manages to maintain walking on the moving rod. Drugs or conditions that cause muscular relaxation will interfere with this coordination and agility, causing the animal to fall from a safe height to a grid below.
The animals were conditioned before performing the test. Animals were required to pass three stages of conditioning on the Rota-rod prior to inclusion in the experiment. During the first stage of conditioning, animals were required to perch on the stationary rod for 30 seconds to accustom themselves to the environment.
Rats that fail to perch for 30 seconds will fall to the grid below. The fall alone typically serves as an adequate aversive stimulus and the animals learn to stay on the perch.
In the second stage of conditioning, the animals that passed the first stage of conditioning were then allowed to walk at a constant speed of 5-rpm for 90 seconds. Any animal that fell off the rod during this trial were allowed to fall to the grid below. Animals are required to stay on the rod for 90 seconds in three consecutive trials out of six total trials, or else they were excluded from the study.
In the final stage of conditioning, about 10-30 minutes after the last trial for each animal that passed the first two stages of conditioning, the animals were placed back on the rod in groups of four and allowed to run in an acceleration mode with a start speed of 5 rpm and an end speed of 15 rpm for 90 seconds. […] A mean performance time was calculated for all animals that managed to stay on the rotating rod for at least 80 seconds. […] Mean performance times were calculated and used as pre-drug baseline values. […] Fifteen minutes post-dosing, the animals were placed back on the rod and the mean performance time in acceleration mode (5-15 RPM) is measured again. […]

Sprague-Dawley rats = experiment: Activity monitor (locomotor activity); format: in vivo, rat; conditions: 10 mg/kg intraperitoneal, thirty minutes after injection
Protocol: Locomotor activity of male Sprague-Dawley rats (Charles River, Wilmington, Mass.) weighing approximately 300 grams was measured thirty minutes following intraperitoneal injection of vehicle or test compound. Test animals were placed in a dark chamber and a Digicom analyzer (Omnitech Electronic, Columbus, Ohio), which records the number of interruptions of an array of 32 photoelectric beams in the X and Y orientation, quantitated exploratory behavior during a five-minute period. Horizonal activity (HD) and total distance (TD) are presented, as well as % vehicle values. * indicates significant difference (P<0.05) relative to vehicle-treated rats.

O=C1CN(N=Cc2ccc(-c3ccc([N+](=O)[O-])cc3)o2)C(=O)N1 [Dantrolene, 1-[[5-(p-Nitrophenyl)furfurylidene]amino]hydantoin]
action on ryanodine receptor-channel complex [1]: antagonist of the ryanodine receptor-channel complex
Mean pain score ([2]; Sulprostone 300 ng/kg + Dantrolene 3 mg/kg, maximum score 16): 12.6 ± 1.5
Mean pain score ([2]; Sulprostone 300 ng/kg + Dantrolene 10 mg/kg, maximum score 16): 9.5 ± 1.9*
Mean pain score ([2]; Sulprostone 300 ng/kg + Dantrolene 20 mg/kg, maximum score 16): 4.8 ± 0.9*
Mean pain score ([3]; PE 100 ng/kg + Dantrolene 3 mg/kg): 9.4 ± 1.6
Mean pain score ([3]; PE 100 ng/kg + Dantrolene 10 mg/kg): 6.5 ± 1.2*
paw withdrawl frequency ([4]; Injected paw, 15 min after capsaicin, dantrolene 3 mg/kg IP 30 minutes before capsaicin): 36 ± 3.7%
paw withdrawl frequency ([4]; Injected paw, 30 min after capsaicin, dantrolene 3 mg/kg IP 30 minutes before capsaicin): 8 ± 1.7 * %
paw withdrawl frequency ([4]; Injected paw, 60 min after capsaicin, dantrolene 3 mg/kg IP 30 minutes before capsaicin): 7 ± 2.1%
paw withdrawl frequency ([4]; Injected paw, Baseline before Caps., dantrolene 3 mg/kg IP): 7 ± 0.9%
paw withdrawl frequency ([4]; Uninjected paw, 15 min., dantrolene 3 mg/kg IP): 5 ± 1.1%
paw withdrawl frequency ([4]; Uninjected paw, 30 min., dantrolene 3 mg/kg IP): 2 ± 1.1%
paw withdrawl frequency ([4]; Uninjected paw, 60 min., dantrolene 3 mg/kg IP): 3 ± 1.3%
paw withdrawl frequency ([4]; Uninjected paw, Baseline, dantrolene 3 mg/kg IP): 5 ± 1%
reversal of allodynic pain (tactile allodynia) ([5]; i.p. 300 ng/kg): reverses the allodynic pain
reversal of allodynic pain (tactile allodynia) ([5]; i.p. 3000 ng/kg): reverses the allodynic pain
reversal of allodynic pain (tactile allodynia) ([5]; i.p. 100 mg/kg): reverses the allodynic pain
reversal of allodynic pain (tactile allodynia) ([5]; i.p. dose of 100 ng/kg): reverses the allodynic pain
Mean pain score ([6]; NMDA 100 ng + Dantrolene 3 mg/kg): 9.3 ± 0.8*
Mean pain score ([6]; NMDA 100 ng + Dantrolene 10 mg/kg): 7.0 ± 1.0*
Mean time on bar (rats; 3 mg/kg IP): 74.33 ± 7.47
Mean time on bar (rats; 10 mg/kg IP): 79.67 ± 5.43
Mean time on bar (rats; 20 mg/kg IP): 37.67 ± 10.4*
HA % vehicle (Sprague-Dawley rats): 82.4%
TD % vehicle (Sprague-Dawley rats): 59.4%
HA (horizontal activity) (Sprague-Dawley rats; five-minute period): 1125.6 ± 114.5
TD (total distance) (Sprague-Dawley rats; five-minute period): 290 ± 48.4

CN[C@H](CC(=O)O)C(=O)O [NMDA]
Mean pain score ([6]; NMDA 100 ng intrathecal alone): 14.2 ± 1.1

CNC[C@H](O)c1cccc(O)c1 [PE, phenylephrine]
Mean pain score ([3]; PE 100 ng/kg alone): 11.3 ± 0.9

CS(=O)(=O)NC(=O)CCC/C=C\C[C@H]1C(=O)C[C@@H](O)[C@@H]1/C=C/[C@@H](O)COc1ccccc1 [Sulprostone]
Mean pain score ([2]; Sulprostone (I.P) 300 ng/kg alone, total score, maximum 16): 14.0 ± 0.5
